Molecular target: Transitional endoplasmic reticulum ATPase (Homo sapiens, UniProt P55072)
Experiment: p97 ATPase inhibitors, dose response, biochemical (AID 1534)

Transitional endoplasmic reticulum ATPase, sequence (P55072 whole entry): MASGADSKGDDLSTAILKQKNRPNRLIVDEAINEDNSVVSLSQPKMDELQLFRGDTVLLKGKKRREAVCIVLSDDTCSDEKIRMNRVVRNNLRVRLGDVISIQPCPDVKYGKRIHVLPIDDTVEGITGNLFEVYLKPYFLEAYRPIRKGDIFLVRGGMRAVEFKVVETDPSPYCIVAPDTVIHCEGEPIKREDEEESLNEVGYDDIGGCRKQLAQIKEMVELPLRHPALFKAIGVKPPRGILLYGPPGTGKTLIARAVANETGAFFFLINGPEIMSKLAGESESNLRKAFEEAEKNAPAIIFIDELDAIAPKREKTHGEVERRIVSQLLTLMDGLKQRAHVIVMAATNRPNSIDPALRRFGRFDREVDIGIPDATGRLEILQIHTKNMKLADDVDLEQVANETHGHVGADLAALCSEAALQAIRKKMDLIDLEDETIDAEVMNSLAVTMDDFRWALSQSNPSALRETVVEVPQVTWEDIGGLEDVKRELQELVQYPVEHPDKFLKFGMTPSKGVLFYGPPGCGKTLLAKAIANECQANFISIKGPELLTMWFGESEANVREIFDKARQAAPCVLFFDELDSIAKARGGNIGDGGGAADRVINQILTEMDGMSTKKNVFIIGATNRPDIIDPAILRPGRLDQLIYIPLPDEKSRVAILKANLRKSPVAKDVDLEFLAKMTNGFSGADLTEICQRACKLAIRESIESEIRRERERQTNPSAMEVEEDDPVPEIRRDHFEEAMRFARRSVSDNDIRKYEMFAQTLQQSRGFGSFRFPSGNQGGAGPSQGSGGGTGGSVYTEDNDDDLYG

| SMILES | IC50 [µM] |
| --- | --- |
| On1[o+]nc2c1CCc1nc(-c3ccccc3)[n-]c1-2 [3-oxidanidyl-7-phenyl-4,5-dihydro-1H-imidazo[4,5-g][2,1,3]benzoxadiazol-3-ium] | > 50 |
| NS(=O)(=O)c1ccc(N=NCc2ccc(O)c(O)c2O)c([N+](=O)[O-])c1 [4-[[(E)-(2,3-dihydroxy-4-oxo-1-cyclohexa-2,5-dienylidene)methyl]hydrazo]-3-nitrobenzenesulfonamide] | > 50 |
| COc1ccc(CN=Nc2nnc(-c3ccccc3)c(=O)[nH]2)cc1 [4-methoxybenzaldehyde (5-oxo-6-phenyl-4,5-dihydro-1,2,4-triazin-3-yl)hydrazone] | > 50 |
| CN(C)[C@@H]1C(=O)C(C(N)=O)C(=O)[C@@]2(O)C(=O)C3C(=O)c4c(O)cccc4[C@@](C)(O)[C@H]3[C@H](O)[C@@H]12 (stereo partly drawn) [(2E,4S,4aR,5S,5aR,6S,12aS)-2-[azanyl(oxidanyl)methylidene]-4-(dimethylamino)-6-methyl-5,6,10,11,12a-pentakis(oxidanyl)-4,4a,5,5a-tetrahydrotetracene-1,3,12-trione] | > 50 |
| Cc1ccc(SCC(=O)C(C#N)c2nc3ccccc3s2)cc1 (configuration not stated) [(2Z)-2-(3H-1,3-benzothiazol-2-ylidene)-3-keto-4-(p-tolylthio)butyronitrile] | > 50 |
| Oc1ccc(CN=Nc2ccnc3cc(Cl)ccc23)cc1O [(4Z)-4-[[2-(7-chloroquinolin-4-yl)hydrazinyl]methylidene]-2-hydroxycyclohexa-2,5-dien-1-one] | 36.5 |
| Cc1ccc(C)c(SCC(=O)OCC(=O)C(C#N)c2nc3ccccc3[nH]2)c1 (configuration not stated) [MLS000392255] | > 50 |

Reference: BindingDB's records for doi:10.7270/Q2P26WJQ (The Scripps Research Institute Molecular Screening Center, 2009)
